Measured values: US10136663B2, “Curcuminoid-based compound/stevioside-containing complex for the prevention and treatment of an influenza virus infection” (priority 2011, dated 2018)
Where two headings read alike, the source gives them in different places.

Columns and labels:
[1] = system: influenza virus H9N2 (A/Chicken/Korea/MS96/96); details: dog
[2] = system: influenza virus H9N2 (A/Chicken/Korea/MS96/96); details: dog; remark: listed apart in the source
[3] = Curcumin content of curcumin/stevioside complex solution; assay type: physicochemical; details: in 100 g/L of the stevioside solution, after ultrasonication at 70° C. and oven reaction
[4] = system: influenza virus type A (H9N2); parameters: species or system chicken; details: in vivo, po

SMILES: CCOC(=O)C1=C[C@@H](OC(CC)CC)[C@H](NC(C)=O)[C@@H](N)C1 [Tamiflu, reference compound]
- SI, selective index, CC50/EC50 [1]: >200
- SI, selective index, CC50/EC50 [2]: >200

SMILES: COc1cc(/C=C/C(=O)/C=C(O)/C=C/c2ccc(O)c(OC)c2)ccc1O [Curcumin, curcumin]
- maximum curcumin in the resulting solution [3]: 3.5 g/L

SMILES: C=C1C[C@@]23CC[C@H]4[C@@](C)(CCC[C@@]4(C)C(=O)O[C@@H]4O[C@H](CO)[C@@H](O)[C@H](O)[C@H]4O)[C@@H]2CC[C@]1(O[C@@H]1O[C@H](CO)[C@@H](O)[C@H](O)[C@H]1O[C@@H]1O[C@H](CO)[C@@H](O)[C@H](O)[C@H]1O)C3 [G4, stevioside]
- Mean virus titer, Cecal Tonsil [4]: 5.30 ± 3.5 log10EID50/g
- Mean virus titer, Trachea [4]: 5.80 ± 1.3 log10EID50/g
- Virus re-isolation, Cecal Tonsil (number of virus-positive chicken/number of inoculated chickens) [4]: 8/10
- Virus re-isolation, Trachea (number of virus-positive chicken/number of inoculated chickens) [4]: 10/10
